Measurements published in ChEMBL document CHEMBL4219047, “Optimization of peptide-based polyagonists for treatment of diabetes and obesity” (Bioorg Med Chem, 2018).
Where a SMILES comes first, the peptide text is derived from it. Bridges are numbered along the chain shown (N, C = ends).

How the values were obtained:
Format in all cases: functional, cell-based
Glucagon receptor [1] = biological target: T1, Glucagon receptor (Homo sapiens, UniProt P47871); assay: Agonist activity at human GCG receptor expressed in HEK293 cells assessed as increase in cAMP level after 5 hrs by CRE driven luciferase reporter gene assay
T1 sequence (P47871 whole entry): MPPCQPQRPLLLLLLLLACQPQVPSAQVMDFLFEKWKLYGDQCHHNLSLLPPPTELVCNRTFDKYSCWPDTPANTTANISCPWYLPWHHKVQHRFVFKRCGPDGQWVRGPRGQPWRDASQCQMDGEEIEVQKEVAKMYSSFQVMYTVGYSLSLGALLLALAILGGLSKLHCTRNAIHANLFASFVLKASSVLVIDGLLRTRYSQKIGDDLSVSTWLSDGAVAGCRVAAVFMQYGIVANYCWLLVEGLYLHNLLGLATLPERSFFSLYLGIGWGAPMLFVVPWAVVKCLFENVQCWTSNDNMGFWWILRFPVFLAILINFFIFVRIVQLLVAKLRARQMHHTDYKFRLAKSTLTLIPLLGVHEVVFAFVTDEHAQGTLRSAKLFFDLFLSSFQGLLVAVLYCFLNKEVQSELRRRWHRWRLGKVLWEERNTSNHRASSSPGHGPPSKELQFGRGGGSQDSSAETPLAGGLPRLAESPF

Glucagon receptor [2] = biological target: T1, Glucagon receptor; assay: Agonist activity at human GCG receptor expressed in HEK293 cells assessed as increase in cAMP level after 5 hrs by CRE driven luciferase reporter gene assay relative to glucagon
[3] = biological target: T2, Glucagon-like peptide 1 receptor (Homo sapiens, UniProt P43220); assay: Agonist activity at human GLP1 receptor expressed in HEK293 cells assessed as increase in cAMP level after 5 hrs by CRE driven luciferase reporter gene assay relative to GLP1; design: concentration or dose not given beside the values
T2 sequence (P43220 whole entry): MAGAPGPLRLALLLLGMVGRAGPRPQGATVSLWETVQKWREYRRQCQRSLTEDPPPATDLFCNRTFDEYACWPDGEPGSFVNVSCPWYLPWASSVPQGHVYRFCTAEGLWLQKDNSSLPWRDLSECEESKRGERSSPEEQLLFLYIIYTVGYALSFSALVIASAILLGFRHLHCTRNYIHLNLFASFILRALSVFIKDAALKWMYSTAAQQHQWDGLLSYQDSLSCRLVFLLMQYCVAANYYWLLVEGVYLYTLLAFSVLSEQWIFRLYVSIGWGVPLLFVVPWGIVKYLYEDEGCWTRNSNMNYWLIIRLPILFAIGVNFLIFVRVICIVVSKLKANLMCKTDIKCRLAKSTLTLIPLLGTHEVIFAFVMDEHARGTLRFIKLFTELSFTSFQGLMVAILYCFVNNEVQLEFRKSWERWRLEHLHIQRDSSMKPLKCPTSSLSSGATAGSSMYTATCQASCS

[4] = biological target: T3, Gastric inhibitory polypeptide receptor (Homo sapiens, UniProt P48546); assay: Agonist activity at human GIP receptor expressed in HEK293 cells assessed as increase in cAMP level after 5 hrs by CRE driven luciferase reporter gene assay
T3 sequence (P48546 whole entry): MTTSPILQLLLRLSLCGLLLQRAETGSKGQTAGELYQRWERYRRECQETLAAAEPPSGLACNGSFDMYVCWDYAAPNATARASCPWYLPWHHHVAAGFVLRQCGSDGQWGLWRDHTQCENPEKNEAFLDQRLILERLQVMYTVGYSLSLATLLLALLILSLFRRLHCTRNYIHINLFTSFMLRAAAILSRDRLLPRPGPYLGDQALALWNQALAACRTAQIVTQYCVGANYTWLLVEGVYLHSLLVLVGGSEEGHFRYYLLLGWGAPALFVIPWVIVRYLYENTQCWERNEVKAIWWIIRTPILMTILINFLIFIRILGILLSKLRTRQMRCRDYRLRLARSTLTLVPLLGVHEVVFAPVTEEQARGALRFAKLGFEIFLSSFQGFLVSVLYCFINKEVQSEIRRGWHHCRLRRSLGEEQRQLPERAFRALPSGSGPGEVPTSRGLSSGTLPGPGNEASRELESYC

[5] = biological target: T4, Gastric inhibitory polypeptide receptor (Homo sapiens) (UniProt P48546); assay: Agonist activity at human GIP receptor expressed in HEK293 cells assessed as increase in cAMP level after 5 hrs by CRE driven luciferase reporter gene assay relative to GIP; design: concentration or dose not given beside the values
T4 sequence (whole entry): T3 sequence (P48546 whole entry)

[6] = biological target: T2, Glucagon-like peptide 1 receptor; assay: Agonist activity at human GLP1 receptor expressed in HEK293 cells assessed as increase in cAMP level after 5 hrs by CRE driven luciferase reporter gene assay

## CC[C@H](C)[C@H](NC(=O)[C@H](Cc1ccccc1)NC(=O)[C@H](CCC(=O)O)NC(=O)[C@@H]1CCCCNC(=O)CC[C@H](NC(=O)[C@H](CC(=O)O)NC(=O)[C@H](CC(C)C)NC(=O)[C@H](Cc2ccc(O)cc2)NC(=O)[C@H](CCCCN)NC(=O)[C@H](CO)NC(=O)[C@H](Cc2ccc(O)cc2)NC(=O)[C@H](CC(=O)O)NC(=O)[C@H](CO)NC(=O)[C@@H](NC(=O)[C@H](Cc2ccccc2)NC(=O)[C@@H](NC(=O)CNC(=O)[C@H](CCC(N)=O)NC(=O)[C@H](CO)NC(=O)[C@@H](N)Cc2cnc[nH]2)[C@@H](C)O)[C@@H](C)O)C(=O)N[C@@H]([C@@H](C)CC)C(=O)N[C@@H](Cc2cnc[nH]2)C(=O)N[C@@H](CCC(N)=O)C(=O)N1)C(=O)N[C@@H](C)C(=O)N[C@@H](Cc1c[nH]c2ccccc12)C(=O)N[C@@H](CC(C)C)C(=O)N[C@@H](CCSC)C(=O)N[C@@H](CC(N)=O)C(=O)N[C@H](C(N)=O)[C@@H](C)O
Glucagon receptor [1]
  EC50: 150 pM
Glucagon receptor [2]
  Activity: 21%
[3]
  Activity: 20%
[4]
  EC50: 5530 pM
[5]
  Activity: 0%
[6]
  EC50: 140 pM

## CC[C@H](C)[C@H](NC(=O)[C@H](Cc1ccccc1)NC(=O)[C@H](CCC(=O)O)NC(=O)[C@H](CCCCN)NC(=O)[C@H](C)NC(=O)[C@H](C)NC(=O)[C@H](CCC(N)=O)NC(=O)[C@H](CCC(=O)O)NC(=O)[C@H](CC(=O)O)NC(=O)[C@H](CC(C)C)NC(=O)[C@H](Cc1ccc(O)cc1)NC(=O)[C@H](CCCCN)NC(=O)[C@H](CO)NC(=O)[C@H](Cc1ccc(O)cc1)NC(=O)[C@H](CC(=O)O)NC(=O)[C@H](CO)NC(=O)[C@@H](NC(=O)[C@H](Cc1ccccc1)NC(=O)[C@@H](NC(=O)CNC(=O)[C@H](CCC(N)=O)NC(=O)[C@H](CO)NC(=O)[C@@H](N)Cc1cnc[nH]1)[C@@H](C)O)[C@@H](C)O)C(=O)N[C@@H](C)C(=O)N[C@@H](Cc1c[nH]c2ccccc12)C(=O)N[C@@H](CC(C)C)C(=O)N[C@@H](CCSC)C(=O)N[C@@H](CC(N)=O)C(=O)N[C@H](C(N)=O)[C@@H](C)O (H-HSQGTFTSDYSKYLDEQAAKEFIAWLMNT-NH2)
Glucagon receptor [1]
  EC50: 31 pM
Glucagon receptor [2]
  Activity: 103%
[3]
  Activity: 127%
[4]
  EC50: 6260 pM
[5]
  Activity: 0%
[6]
  EC50: 22 pM

## CCCCCCCCCCCCCCCC(=O)N[C@@H](CCC(=O)NCCCC[C@H](NC(=O)[C@H](CC(=O)O)NC(=O)[C@H](CO)NC(=O)[C@@H](NC(=O)[C@H](Cc1ccccc1)NC(=O)[C@@H](NC(=O)CNC(=O)[C@H](CCC(N)=O)NC(=O)[C@@H](CO)NC(=O)[C@@H](N)Cc1cnc[nH]1)[C@@H](C)O)[C@@H](C)O)C(=O)N[C@@H](CO)C(=O)N[C@@H](CCCCN)C(=O)N[C@@H](Cc1ccc(O)cc1)C(=O)N[C@@H](CC(C)C)C(=O)N[C@@H](CC(=O)O)C(=O)N[C@@H](CCC(=O)O)C(=O)N[C@@H](CCCNC(=N)N)C(=O)N[C@@H](C)C(=O)N[C@@H](C)C(=O)N[C@@H](CCC(N)=O)C(=O)N[C@@H](CC(=O)O)C(=O)N[C@@H](Cc1ccccc1)C(=O)N[C@H](C(=O)N[C@@H](CCC(N)=O)C(=O)N[C@@H](Cc1c[nH]c2ccccc12)C(=O)N[C@@H](CC(C)C)C(=O)N[C@@H](CC(C)C)C(=O)N[C@@H](CC(=O)O)C(=O)N[C@H](C(N)=O)[C@@H](C)O)C(C)C)C(=O)O
Glucagon receptor [1]
  EC50: 6 pM
Glucagon receptor [2]
  Activity: 533%
[3]
  Activity: 933%
[4]
  EC50: 1650 pM
[5]
  Activity: 1%
[6]
  EC50: 3 pM

## CC[C@H](C)[C@H](NC(=O)[C@H](Cc1ccccc1)NC(=O)[C@H](CCC(=O)O)NC(=O)[C@H](CCCCN)NC(=O)[C@H](C)NC(=O)[C@H](C)NC(=O)[C@H](CCC(N)=O)NC(=O)[C@H](CCC(=O)O)NC(=O)[C@H](CC(=O)O)NC(=O)[C@H](CC(C)C)NC(=O)[C@H](Cc1ccc(O)cc1)NC(=O)[C@H](CCCCN)NC(=O)[C@H](CO)NC(=O)[C@H](Cc1ccc(O)cc1)NC(=O)[C@H](CC(=O)O)NC(=O)[C@H](CO)NC(=O)[C@@H](NC(=O)[C@H](Cc1ccccc1)NC(=O)[C@@H](NC(=O)CNC(=O)[C@H](CCC(=O)O)NC(=O)[C@H](CO)NC(=O)[C@@H](N)Cc1cnc[nH]1)[C@@H](C)O)[C@@H](C)O)C(=O)N[C@@H](C)C(=O)N[C@@H](Cc1c[nH]c2ccccc12)C(=O)N[C@@H](CC(C)C)C(=O)N[C@@H](CCSC)C(=O)N[C@@H](CC(N)=O)C(=O)N[C@H](C(N)=O)[C@@H](C)O (H-HSEGTFTSDYSKYLDEQAAKEFIAWLMNT-NH2)
Glucagon receptor [1]
  EC50: 5220 pM
Glucagon receptor [2]
  Activity: 1%
[3]
  Activity: 93%
[4]
  EC50: 867 pM
[5]
  Activity: 2%
[6]
  EC50: 30 pM

## CCCCCCCCCCCCCCCC(=O)N[C@@H](CCC(=O)NCCCC[C@H](NC(=O)[C@H](CC(=O)O)NC(=O)[C@H](CO)NC(=O)[C@@H](NC(=O)[C@H](Cc1ccccc1)NC(=O)[C@@H](NC(=O)CNC(=O)[C@H](CCC(N)=O)NC(=O)C(C)(C)NC(=O)[C@@H](N)Cc1cnc[nH]1)[C@@H](C)O)[C@@H](C)O)C(=O)N[C@@H](CO)C(=O)N[C@@H](CCCCN)C(=O)N[C@@H](Cc1ccc(O)cc1)C(=O)N[C@@H](CC(C)C)C(=O)N[C@@H](CC(=O)O)C(=O)N[C@@H](CCC(=O)O)C(=O)N[C@@H](CCCNC(=N)N)C(=O)N[C@@H](C)C(=O)N[C@@H](C)C(=O)N[C@@H](CCC(N)=O)C(=O)N[C@@H](CC(=O)O)C(=O)N[C@@H](Cc1ccccc1)C(=O)N[C@H](C(=O)N[C@@H](CCC(N)=O)C(=O)N[C@@H](Cc1c[nH]c2ccccc12)C(=O)N[C@@H](CC(C)C)C(=O)N[C@@H](CC(C)C)C(=O)N[C@@H](CC(=O)O)C(=O)N[C@H](C(N)=O)[C@@H](C)O)C(C)C)C(=O)O
Glucagon receptor [1]
  EC50: 5 pM
Glucagon receptor [2]
  Activity: 640%
[3]
  Activity: 41%
[4]
  EC50: 2030 pM
[5]
  Activity: 1%
[6]
  EC50: 68 pM

## CCCCCCCCCCCCCCCC(=O)N[C@@H](CCC(=O)NCCCC[C@H](NC(=O)[C@H](CC(=O)O)NC(=O)[C@H](CO)NC(=O)[C@@H](NC(=O)[C@H](Cc1ccccc1)NC(=O)[C@@H](NC(=O)CNC(=O)[C@H](CCC(N)=O)NC(=O)CNC(=O)[C@@H](N)Cc1cnc[nH]1)[C@@H](C)O)[C@@H](C)O)C(=O)N[C@@H](CO)C(=O)N[C@@H](CCCCN)C(=O)N[C@@H](Cc1ccc(O)cc1)C(=O)N[C@@H](CC(C)C)C(=O)N[C@@H](CC(=O)O)C(=O)N[C@@H](CCC(=O)O)C(=O)N[C@@H](CCCNC(=N)N)C(=O)N[C@@H](C)C(=O)N[C@@H](C)C(=O)N[C@@H](CCC(N)=O)C(=O)N[C@@H](CC(=O)O)C(=O)N[C@@H](Cc1ccccc1)C(=O)N[C@H](C(=O)N[C@@H](CCC(N)=O)C(=O)N[C@@H](Cc1c[nH]c2ccccc12)C(=O)N[C@@H](CC(C)C)C(=O)N[C@@H](CC(C)C)C(=O)N[C@@H](CC(=O)O)C(=O)N[C@H](C(N)=O)[C@@H](C)O)C(C)C)C(=O)O
Glucagon receptor [1]
  EC50: 5 pM
Glucagon receptor [2]
  Activity: 640%
[3]
  Activity: 30%
[4]
  EC50: 1100 pM
[5]
  Activity: 2%
[6]
  EC50: 93 pM

## CCCCCCCCCCCCCCCC(=O)N[C@@H](CCC(=O)NCCCC[C@H](NC(=O)[C@H](CC(=O)O)NC(=O)[C@H](CO)NC(=O)[C@@H](NC(=O)[C@H](Cc1ccccc1)NC(=O)[C@@H](NC(=O)CNC(=O)[C@H](CCC(N)=O)NC(=O)C(C)(C)NC(=O)[C@@H](N)Cc1cnc[nH]1)[C@@H](C)O)[C@@H](C)O)C(=O)N[C@@H](CO)C(=O)N[C@@H](CCCCN)C(=O)N[C@@H](Cc1ccc(O)cc1)C(=O)N[C@@H](CC(C)C)C(=O)N[C@@H](CC(=O)O)C(=O)N[C@@H](CCC(=O)O)C(=O)N[C@@H](CCC(N)=O)C(=O)N[C@@H](C)C(=O)N[C@@H](C)C(=O)N[C@@H](CCCCN)C(=O)N[C@@H](CCC(=O)O)C(=O)N[C@@H](Cc1ccccc1)C(=O)N[C@H](C(=O)N[C@@H](C)C(=O)N[C@@H](Cc1c[nH]c2ccccc12)C(=O)N[C@@H](CC(C)C)C(=O)N[C@@H](CC(C)C)C(=O)N[C@@H](CC(=O)O)C(=O)N[C@H](C(N)=O)[C@@H](C)O)[C@@H](C)CC)C(=O)O
Glucagon receptor [1]
  EC50: 3 pM
Glucagon receptor [2]
  Activity: 1070%
[3]
  Activity: 933%
[4]
  EC50: 3540 pM
[5]
  Activity: 1%
[6]
  EC50: 3 pM

## CC[C@H](C)[C@H](NC(=O)[C@H](Cc1ccccc1)NC(=O)[C@H](CCC(=O)O)NC(=O)[C@@H]1CCCCNC(=O)CC[C@H](NC(=O)[C@H](CC(=O)O)NC(=O)[C@H](CC(C)C)NC(=O)[C@H](Cc2ccc(O)cc2)NC(=O)[C@H](CCCCN)NC(=O)[C@H](CO)NC(=O)[C@H](Cc2ccc(O)cc2)NC(=O)[C@H](CC(=O)O)NC(=O)[C@H](CO)NC(=O)[C@@H](NC(=O)[C@H](Cc2ccccc2)NC(=O)[C@@H](NC(=O)CNC(=O)[C@H](CCC(N)=O)NC(=O)[C@H](CO)NC(=O)[C@@H](N)Cc2cnc[nH]2)[C@@H](C)O)[C@@H](C)O)C(=O)N[C@@H](CCC(N)=O)C(=O)N[C@@H](C)C(=O)N[C@@H](C)C(=O)N1)C(=O)N[C@@H](C)C(=O)N[C@@H](Cc1c[nH]c2ccccc12)C(=O)N[C@@H](CC(C)C)C(=O)N[C@@H](CCSC)C(=O)N[C@@H](CC(N)=O)C(=O)N[C@H](C(N)=O)[C@@H](C)O (H-HSQGTFTSDYSKYLDEQAAKEFIAWLMNT-NH2; lactam 16-20)
Glucagon receptor [1]
  EC50: 30 pM
Glucagon receptor [2]
  Activity: 104%
[3]
  Activity: 126%
[4]
  EC50: 6260 pM
[5]
  Activity: 0%
[6]
  EC50: 20 pM
